Patent US20180037605A1, “SYNTHETIC PEPTIDES AND ENZYMATIC FORMATION OF INTRACELLULAR HYDROGELS” (BRANDEIS UNIVERSITY, priority 2015, published 2018)
In brackets after ≈: the same amount, converted by molar mass.

What was measured:
[1] = tested on: HeLa cells; assay: MTT cell viability, HeLa; format: cell-based; conditions: third day (72 h)
Method: D-7 and D-10 (FIG. 12A), the enantiomers of L-7 and L-10, were prepared as described in Example 3. HeLa and SKOV3 cells were used in an MTT assay for assessing cytotoxicity of the peptides against these cancer cell lines.

[2] = tested on: A2780 cells; assay: MTT cell viability, A2780; format: cell-based
[3] = tested on: SKOV3 cells; assay: LC-MS of cell lysates and culture medium, SKOV3; format: cell-based
Method: (§1) After confirming that CES converts the precursor L-10 or D-10 into the hydrogelator L-12 or D-12, the stability of the precursors (L-10 or D-10) when incubated with the ovarian cancer cells was determined. After culturing the precursors with SKOV3 or A2780cis cells at 37° C. for 4 hours, the cell lysates and culture medium were collected for liquid chromatography-mass spectrometry (LC-MS) analysis and the intracellular concentrations of the precursors, the hydrogelators, and the relevant proteolyzed products were determined. After incubation with SKOV3 or A2780cis cells for 4 hours, more than 85% of the precursors (L-10 or D-10) turned into the corresponding hydrogelators (L-12 or D-12; see Table 1 below).

[4] = tested on: A2780cis cells; assay: LC-MS of cell lysates, A2780cis; format: cell-based; conditions: 100 μm D-10
Method: as §1

[5] = tested on: PC-12 cells; assay: MTT cell viability, PC-12 neuronal cells; format: cell-based, rat
Method: (§3) The cells were seeded in exponential growth phase in a 96 well plate at a concentration of 1×10^4 cell/well with 100 μL of culture medium. Cells were allowed to attach for 24 hours at 37° C., 5% CO2 and then the culture medium was removed with the help of vacuum pump. Culture medium containing the precursors in gradient concentrations was added to each well (0 μM as control). 10 μL of 5 mg/mL MTT ((3-(4,5-Dimethylthiazol-2-yl)-2,5-diphenyltetrazolium bromide) was added to each well after 24 hours, 48 hours, and 72 hours incubation. After 4 hours incubation of the plated cells in dark place, 100 μL 10% SDS with 0.01 M HCl was added to each well to dissolve the purple formazan and to stop the reduction reaction. 24 hours later, the absorbance of the solution at 595 nm was finally measured with a DTX 880 Multimode Detector.

[6] = tested on: HCC1937 cells; assay: MTT cell viability, HCC1937; format: cell-based; conditions: third day (72 h)
[7] = tested on: MCF-7 cells; assay: MTT cell viability, MCF-7; format: cell-based; conditions: third day (72 h)
Method: as §3

[8] = tested on: Saos-2 cells; assay: MTT cell viability, Saos-2; format: cell-based; conditions: third day (72 h)
Method: as §3

[9] = tested on: MES-SA cells; assay: MTT cell viability, MES-SA; format: cell-based; conditions: third day (72 h)
Method: as §3

[10] = tested on: MES-SA/D×5 cells; assay: MTT cell viability, MES-SA/D×5; format: cell-based; conditions: third day (72 h)
Method: as §3

[11] = tested on: A375 cells; assay: MTT cell viability, A375; format: cell-based; conditions: third day (72 h)
Method: as §3

[12] = tested on: HepG2 cells; assay: MTT cell viability, HepG2; format: cell-based; conditions: third day (72 h)
Method: as §3

[13] = tested on: U87MG cells; assay: MTT cell viability, U87MG; format: cell-based; conditions: 72 hours incubation
Method: as §3

[14] = tested on: T98G cells; assay: MTT cell viability, T98G; format: cell-based; conditions: 72 hours incubation
Method: as §3

[15] = tested on: co-cultured HS-5 and SKOV3 cells; assay: Cell viability of co-cultured HS-5 and SKOV3 cells; format: cell-based; conditions: D-10 37 μg/mL
Method: (§2) 5×10^3 of SKOV3 cells (or A2780cis) and 5×10^3 HS-5 cells per well were seeded together and co-cultured in DMEM medium. Based on the results in FIG. 22, the concentrations of L-10 and D-10 at 73 and 37 μg/mL, respectively, were chosen. […] The inhibitory activities of L-10 and D-10 towards the co-culture agree well with their cytotoxicity against A2780cis, SKOV3, and H-5 cells. […] For example, on the first day, the cell viabilities of co-cultured HS-5 and SKOV3 cells and co-cultured HS-5 and A2780cis cells treated by D-10 (37 μg/mL) were 79% and 80%, respectively. While on the third day, the cell viabilities dropped to 44% and 57%, respectively. […] Contrary to the case of D-10, the efficacies of L-10 were almost the same between day two and day three (FIG. 25A), which agreed with the lower in vivo stability of L-10 than that of D-10.

[16] = tested on: co-cultured HS-5 and A2780cis cells; assay: Cell viability of co-cultured HS-5 and A2780cis cells; format: cell-based; conditions: D-10 37 μg/mL
Method: as §2

[17] = tested on: SKOV3 cells
Method: SKOV3 cells were seeded in exponential growth phase in a 96 well plate at a concentration of 1×10^4 cell/well with 100 μL of McCoy's 5A medium modified supplemented with 10% fetal bovine serum (FBS), 100 U/mL penicillin and 100 μg/ml streptomycin. The cells were allowed to attach to the wells for 24 hours at 37° C., 5% CO2. The culture medium was removed and 100 μL culture medium containing compounds (immediately diluted from fresh prepared stock solution of 10 mM) at gradient concentrations (0 μM as the control) was placed into each well. McCoy's 5A medium modified was regarded as blank. After culturing at 37° C., 5% CO2 for 24 hours, 48 hours, and 72 hours, 10 μL of 5 mg/mL MTT (3-(4,5-Dimethylthiazol-2-yl)-2,5-diphenyltetrazolium bromide) was added to each well, and the plated cells were incubated in dark place for 4 hours. 100 μL 10% SDS with 0.01 M HCl was added to each well to stop the reduction reaction and to dissolve the purple formazan. After incubation of the cells at 37° C. for overnight, the OD at 595 nm of the solution was measured in a microplate reader.
as §3

[18] = tested on: A2780cis cells
[19] = tested on: HS-5 cells; conditions: 72 h
Method: as §3

[20] = mouse, in vivo, 20 mg/kg
[21] = in vitro; conditions: human
Method: as §3

[22] = tested on: HS-5 cells; assay: MTT cell viability, HS-5 stromal cells; conditions: 20 μM (D-10) and 50 μM (L-10)
Method: as §3

[23] = Systemic toxicity after intravenous injection in mice; conditions: 5 to 20 mg/kg, after 7 days
[24] = combination of D-10 and CP, 72 hours
[25] = SKOV3 cell lysates, 4 hours, 37° C., 20 μm D-10 or 50 μm L-10

## O=C(CCC(=O)OCCNC(=O)[C@@H](Cc1ccccc1)NC(=O)[C@@H](Cc1ccccc1)NC(=O)Cc1ccc2ccccc2c1)NCCS(=O)(=O)O [D-10]
[1]
  IC50, HeLa: 27 µg/mL (≈ 36.9 µM)
[2]; [24]
  viability of A2780 cells, combination with CP: 9%
[2]; third day (72 h)
  IC50, A2780: 37 µg/mL (≈ 50.6 µM)
[3]; 4 hours incubation
  cumulative intracellular concentration of precursor and hydrogelator relative to incubation concentration: about 5 fold
[3]; SKOV3 cell lysates, 20 μm D-10 or 50 μm L-10
  Ratio of hydrogelator to precursor after 4 hours: 6.75
[3]; [25]
  Hydrogelator (12) intracellular concentration: 108 μm
  Precursor (10) intracellular concentration: 16 μm
[4]
  Ratio of hydrogelator to precursor after 4 hours: 8.43
[4]; 4 hours, 37° C.
  Hydrogelator (12) intracellular concentration: 582 μm
  Precursor (10) intracellular concentration: 69 μm
[5]; 20 μM (D-10) and 50 μM (L-10)
  inhibition of PC-12 cells: hardly inhibited
[5]; third day (72 h)
  IC50, PC-12: 62 µg/mL (≈ 84.8 µM)
[6]
  IC50, HCC1937: 26 µg/mL (≈ 35.6 µM)
[7]
  IC50, MCF-7: 25 µg/mL (≈ 34.2 µM)
[8]
  IC50, Saos-2: 44 µg/mL (≈ 60.2 µM)
[9]
  IC50, MES-SA: 31 µg/mL (≈ 42.4 µM)
[10]
  IC50, MES-SA/D×5: 163 µg/mL (≈ 223 µM)
[11]
  IC50, A375: 38 µg/mL (≈ 52 µM)
[12]
  IC50, HepG2: 88 µg/mL (≈ 120 µM)
[13]
  IC50, U87MG: 126 µg/mL (≈ 172 µM)
[14]
  IC50, T98G: 145 µg/mL (≈ 198 µM)
[15]; first day
  cell viability of co-cultured HS-5 and SKOV3 cells: 79%
[15]; third day
  cell viability of co-cultured HS-5 and SKOV3 cells: 44%
[16]; first day
  cell viability of co-cultured HS-5 and A2780cis cells: 80%
[16]; third day
  cell viability of co-cultured HS-5 and A2780cis cells: 57%
[17]; 48 h, 50 μM
  inhibition of SKOV3 ovarian cancer cells: over 70%
[17]; 72 h
  IC50, SKOV3: 31 µg/mL (≈ 42.4 µM)
[17]; 72 h, 15 μg/mL
  inhibition of SKOV3 cells by mixture with CP: about 74%
[17]; human, 72 hours, 37 μg/mL
  viability of SKOV3 cells: 10%
[18]; [24]
  inhibition of A2780cis cells by combination with CP: 70%
[18]; third day (72 h)
  IC50, A2780cis: 36 µg/mL (≈ 49.3 µM)
[19]
  IC50, HS-5: 50 µg/mL (≈ 68.4 µM)
[20]
  tolerability: well tolerated
[21]
  viability at 3 day, 37 μg/mL: ~80%
[22]
  inhibition of HS-5 cells: hardly inhibited
[23]
  effect on weight and organ index of mice: hardly affected
